These results are taken from patent EP2401611B1, “IMPROVED METHODS FOR IDENTIFICATION” (Cambridge Enterprise Limited, priority 2009, dated 2010).

One assay relates to fetal rat pituicytes. The experiment in a line: Rat pituicyte GH suppression assay. The class given is cell-based. Particulars: Rattus norvegicus; for Emax: Table 3, percentage suppression compared to vehicle, read-out: Rat pituicyte GH suppression assay Max effect (%); for EC50: Table 3, read-out: Rat pituicyte GH suppression assay ED50. The text has this:
Two different assays for "classical" sstr2 functions were adopted: (1) cultured foetal rat pituitary cells secreted growth hormone which is inhibited by sstr2 agonists in a dose-dependent fashion and (2) selected glucose-sensitive sub-clones of the human Panc-1 cell line secrete insulin which is inhibited by sstr2 agonists in a dose-dependent fashion.
Methods: Cultures of fetal rat pituicytes were established exactly as previously described (Murray et al. (2004) J. Clin. Endocrinol. Metab. 89:3027-32) by enzymatic dispersion. After 48hrs in low glucose DMEM plus 10% FCS, cells in 48 well plates (5 x 10^4 cells per well) were washed for 4hrs in serum-free DMEM and then incubated with test agents at various concentrations for a further 24hrs in serum-free DMEM. At the end of this period, the conditioned medium was harvested, any cell debris removed by centrifugation and assayed for GH using a commercially available ELISA (Linco; cat# EZRMGH-45K) in accordance with the manufacturer's instructions.
Results were reported as the mean ± SD, expressed as the fold change from cells in the presence of vehicle only.

Another assay has as its system THP-1 cells. Nature of the assay: MCP-1 induced THP-1 cell migration (Transwell) assay. The class given is cell-based, human. Particulars: for EC50 / Emax: Homo sapiens, THP-1. As to the method:
Leukocyte migration was measured using the 96-well format micro Transwell^RTM assay system from Neuroprobe (Gaithersburg, MD, USA). In principle, this assay consists of two chambers separated by a porous membrane. The chemoattractant is placed in the lower compartment and the cells are placed in the upper compartment. After incubation for a period at 37°C the cells move towards the chemoattractant, and the number of cells in the lower compartment is proportional to the chemoattractant activity (relative to a series of controls).
The method was performed essentially as previously described (Reckless & Grainger (1999) Biochem. J. 340:803-11).
First, the cell suspension to be placed in the upper compartment was prepared. The THP-1 cells were pelleted by centrifugation (770 x g; 4 mins) and washed with Geys Balanced Salt Solution with 1mg/ml BSA (GBSS + BSA). This wash was then repeated, and the cells re-pelleted before being resuspended in a small volume of GBSS + BSA for counting, for example using a standard haemocytometer.
The volume of GBSS + BSA was then adjusted depending on the number of cells present so that the cells were at final density of 4.45 x 10^6 cells per ml of GBSS + BSA. This ensured that there were 100,000 THP-1 cells in each 25µl of the solution to be placed in the upper chamber of the plate.
The suspension of THP-1 cells at 4.45 x 10^6 cells/ml was divided into three pots. To one pot the BSCI was added at an appropriate final concentration, in an appropriate vehicle (for example (S)- 3-(2',2'-dimethylpropanoylamino)-tetrahydropyridin-2-one was added at 1nM from a stock solution in GBSS). To the second pot, the BSCI was added at the same concentration as in the first pot, but additionally the sstr2 antagonist was also added (for example BIM 23454 [Tulipano et al. (2002) 143:1218-24] or BIM 23627 were added at 66nM final concentration from a stock solution in GBSS). To the third pot, GBSS + BSA plus vehicle as appropriate was added so that the volumes in three pots are equal, acting as a control.
Next, the chemoattractant solution to be placed in the lower compartment was prepared. […]. Note that, as recommended by Frow et al (Med. Res. Rev. 24:276-98) this is the concentration of MCP-1 which induces maximal migration in this system. This solution was divided into three pots, as for the cell suspension. To one pot, the BSCI was added to the same final concentration as was added to the cell suspension, in the second pot the BSCI and the sstr2 antagonist were both added at the same concentration as previously added to the cell suspension, while to the remaining pot GBSS + BSA plus vehicle as appropriate was added so that the volumes in the three pots were equal. Note that the volume of liquid that needs to be added to make the addition of the BSCI and the sstr2 antagonist compounds needs to be taken into account, when establishing the final concentration of MCP-1 in the solution for the lower compartment and the final concentration of cells in the upper compartment.
Once the chemoattractant solutions for the lower wells and cell solutions for the upper chambers were prepared, the migration chamber was assembled. 29 µl of the appropriate chemoattractant solution was placed into the lower well of the chamber. Assays were performed with at least triplicate determinations of each condition. Once all the lower chambers were filled, the porous membrane was applied to the chamber in accordance with the manufacturer's instructions. Finally, 25 µl of the appropriate cell solution was applied to each upper chamber. A plastic lid was placed over the entire apparatus to prevent evaporation.
The assembled chamber was incubated at 37 °C, 5% CO2, for 2 hours. A suspension of cells in GBSS + BSA was also incubated under identical conditions in a tube: these cells were used to construct a standard curve for determining the number of cells that migrated to the lower chamber under each condition. […]

Another assay relates to TNF-alpha. The experiment in a line: Sub-lethal endotoxemia model (LPS challenge, serum TNF-alpha). The class given is in vivo, mouse. Particulars: BN83250 subcutaneous, valerolactam oral gavage. As to the method: We selected the sub-lethal endotoxemia model in mouse, because this has been well characterised in our laboratory (see for example Fox et al. (2002) J. Med. Chem. 45:360-70; Fox et al. (2005) J. Med. Chem. 48:867-74). The extent of systemic inflammation in response to a single intraperitoneal injection of bacterial lipopolysaccharide (LPS) can be estimated by measuring serum TNF-alpha 2 hours post challenge.
Methods: Mice (CD1 strain; adult males; 6 per group) were treated with BSCI (in an appropriate vehicle) or with vehicle alone by an appropriate route. […] Simultaneously, one set of mice at each BSCI concentration received BIM 23627 at 4mg/animal (120mg/kg) by sub-cutaneous injection (a treatment condition known to suppress classical sstr2-mediated signalling, such as GH release, in rats; Tulipano et al. (2002) 143:1218-24). Between 30mins and 1hour after dosing (a period when a maximal plasma concentration of BSCI has been achieved), the inflammatory challenge was elicited by intraperitoneal injection of 750µg of LPS (Sigma; L4130 lot#024K4077; 900,000 EU/mg).
After a further 2 hours, the animals were sacrificed by CO2 asphyxiation, and blood was drawn by cardiac puncture. Serum was prepared by conventional methods, and the level of TNF-alpha in serum was measured using an ELISA (R&D Systems; Murine Quantikine code# MTA00) performed in accordance with the manufacturer's instructions.

Where [1] appears, read: Table 3, read-out: Human chemokine-induced THP-1 migration assay ED50.
Where [2] appears, read: Table 3, read-out: Human chemokine-induced THP-1 migration assay Max effect (%).

Structures are written as SMILES. Like-named read-outs stand apart in the source and are kept apart here.

Consider `CCCCCCCCCCC(C)(C)C(=O)N[C@H]1CCCCNC1=O` [BN83250, (S)-3-(2',2'-dimethyldodecanoyl)amino-caprolactam], for which the Emax in the assay with fetal rat pituicytes was determined as 63%; in the assay on THP-1 cells (setting [2]) it was 100%; in the assay on THP-1 cells (Table 5, read-out: Chemokine-induced THP-1 cell migration assay ("BSCI" target) Max Effect (%)), 100%. Further, the EC50 in the assay with fetal rat pituicytes was 320 nM; in the assay on THP-1 cells (setting [1]), 0.09 nM; in the assay on THP-1 cells (Table 5, library screening hits, read-out: Chemokine-induced THP-1 cell migration assay ("BSCI" target) ED50), 0.09 nM; in the assay on THP-1 cells (read-out: ED50 for inhibition of chemokine-induced THP-1 cell migration) it was less than 1 nM. Besides, in the assay with THP-1 cells, the “"Classical" : "BSCI" potency ratio Human” value is less than 0.00009. The RATIO with THP-1 cells (Table 5, THP-1 migration ED50 versus insulin suppression ED50) is given as less than 0.00009. Also, the “inhibition of LPS-induced TNF-alpha production (in words)” value in the assay with TNF-alpha is given as “dramatically inhibited”.

For the molecule `CC(C)(C)C(=O)N[C@H]1CCCNC1=O` [Valerolactam, (S)-3-(2'2'-dimethylpropionoylamino)-tetrahydropyridin-2-one], the Emax in the assay on fetal rat pituicytes was determined as 61%; in the assay on THP-1 cells (setting [2]), 100%. Besides, the EC50 came to 80 nM with fetal rat pituicytes and 0.05 nM with THP-1 cells (setting [1]). Further, in the assay on THP-1 cells (Fig. 5 compared with Fig. 4), the “potency as BSCI relative to BN83253” value is 20-50 fold. In addition, the “"Classical" : "BSCI" potency ratio Human” value in the assay on THP-1 cells (Table 3, THP-1 migration ED50 versus Panc-2H4 insulin suppression ED50) is less than 0.00005. For the same molecule, the “inhibition of MCP-1 induced cell migration (in words)” value in the assay with THP-1 cells (figure legends and text) was “inhibits MCP-1 induced cell migration in a dose-dependent manner”. In the assay with TNF-alpha, the “inhibition of LPS-induced TNF-alpha production (in words)” value was “dramatically inhibited”.
